Source: patent US11147778B2, “Siderophore-polymer conjugates for increasing bacterial sensitivity to antibiotics” (Wisconsin Alumni Research Foundation, priority 2016, dated 2021)
Like-named read-outs stand apart in the source and are kept apart here.

Experiments:
[1] = system: Pseudomonas aeruginosa 3076; parameters: key: S = susceptible; I = intermediate; R = resistant; conditions: strain 3076; cited from earlier work
[2] = system: Pseudomonas aeruginosa 823; parameters: key: S = susceptible; I = intermediate; R = resistant; conditions: strain 823; cited from earlier work
[3] = system: Pseudomonas aeruginosa 26975; parameters: key: S = susceptible; I = intermediate; R = resistant; conditions: strain 26975; cited from earlier work
[4] = system: Pseudomonas aeruginosa 3070; parameters: key: S = susceptible; I = intermediate; R = resistant; conditions: strain 3070; cited from earlier work
[5] = system: Pseudomonas aeruginosa 3068; parameters: key: S = susceptible; I = intermediate; R = resistant; conditions: strain 3068; cited from earlier work
[6] = system: Pseudomonas aeruginosa 24530; parameters: key: S = susceptible; I = intermediate; R = resistant; conditions: strain 24530; cited from earlier work
[7] = system: Pseudomonas aeruginosa 2638; parameters: key: S = susceptible; I = intermediate; R = resistant; conditions: strain 2638; cited from earlier work
[8] = system: Pseudomonas aeruginosa 3072; parameters: key: S = susceptible; I = intermediate; R = resistant; conditions: strain 3072; cited from earlier work
[9] = system: Pseudomonas aeruginosa 3071; parameters: key: S = susceptible; I = intermediate; R = resistant; conditions: strain 3071; cited from earlier work
[10] = system: Pseudomonas aeruginosa 9139; parameters: key: S = susceptible; I = intermediate; R = resistant; conditions: strain 9139; cited from earlier work
P. aeruginosa PAO1 [11] = experiment: Broth microdilution MIC / FICI; type: cell-based; conditions: Pseudomonas aeruginosa
Procedure: (§1) Antimicrobial efficacy was assessed by the broth microdilution assay in accordance with NCCLS guidelines (Coyle, Marie B. Manual of antimicrobial susceptibility testing. American Society for Microbiology, 2005). Organisms were grown overnight on non-selective MHA medium in order to obtain single colonies. Three to five morphologically distinct colonies were touched with a sterile pipet tip and transferred to a culture tube containing MHB (4 mL), and the broth culture was incubated at 37° C. until its turbidity matched a 0.5 McFarland Standard. The inoculum was then diluted 1:20 in sterile water, followed by a 1:10 dilution when inoculating wells of a 96-well plate. […] For combinations, the fractional inhibitory concentration index (FICI) was calculated using the following equation: [formula]

E. coli ATCC 25922 = experiment: Broth microdilution MIC / FICI; type: cell-based; conditions: Escherichia coli, ATCC25922, E. coli ATCC 25922
Procedure: as §1

P. aeruginosa ATCC 27853 [12] = experiment: Broth microdilution MIC / FICI; type: cell-based; conditions: Pseudomonas aeruginosa, ATCC27853
Procedure: as §1

P. aeruginosa MDR 3072 = experiment: Broth microdilution MIC / FICI; type: cell-based; conditions: Pseudomonas aeruginosa, MDR3072; MDR 3072; antibiotic alone; read-out: MIC
Procedure: as §1, with “[formula]” left out

P. aeruginosa MDR 2638 = experiment: Broth microdilution MIC / FICI; type: cell-based; conditions: Pseudomonas aeruginosa, MDR2638; MDR 2638; antibiotic alone; read-out: MIC
Procedure: as §1, with “[formula]” left out

P. aeruginosa MDR 24530 = experiment: Broth microdilution MIC / FICI; type: cell-based; conditions: Pseudomonas aeruginosa, MDR24530; MDR 24530; antibiotic alone; read-out: MIC
Procedure: as §1, with “[formula]” left out

P. aeruginosa PAO1 [13] = experiment: Disk diffusion, zones of inhibition; type: cell-based, Pseudomonas aeruginosa; conditions: PAO1; for zone of inhibition, A: same disks and plates
Procedure: (§2) Single colonies were grown in MHB to match a 0.5 McFarland standard. A sterile cotton swab was dipped into the various MDR strain inoculums and spread evenly over the surface of the agar plates. Purchased antibiotic-containing disks at fixed concentrations (Table 4) were placed on the surface of each plate and incubated overnight at 37° C. Zones of inhibition were measured the following morning. Measurements included the diameter (d) of the antibiotic disk (6 mm) and are reported in terms of diameters and areas. […] Typically for diameters, R<10, I 11-15, and S>15 where R=resistance, I=intermediate resistance, and S=susceptible.

[14] = system: P. aeruginosa MDR strain 3072; experiment: Disk diffusion, zones of inhibition; type: cell-based, Pseudomonas aeruginosa; conditions: 3072; for zone of inhibition, A: same disks and plates
Procedure: as §2

P. aeruginosa ATCC 27853 [15] = experiment: Disk diffusion, zones of inhibition; type: cell-based, Pseudomonas aeruginosa; conditions: 27853; for zone of inhibition, A: same disks and plates
Procedure: as §2

[16] = system: P. aeruginosa MDR strain 24530; experiment: Disk diffusion, zones of inhibition; type: cell-based, Pseudomonas aeruginosa; conditions: 24530; for zone of inhibition, A: same disks and plates
Procedure: as §2

[17] = PAO1, antibiotic alone, Table 3, read-out: MIC
[18] = antibiotic alone, Table 3, read-out: MIC
[19] = Pseudomonas aeruginosa, disks NVB 30 μg, ERY 15 μg, RIF 5 μg, VAN 30 μg, MHA with or without 256 μM DG-F125, includes 6 mm disk, read-out: zone of inhibition, d
[20] = Pseudomonas aeruginosa, ATCC27853, disks NVB 30 μg, ERY 15 μg, RIF 5 μg, VAN 30 μg, MHA with or without 256 μM DG-F125, includes 6 mm disk, read-out: zone of inhibition, d

Structure (SMILES)	Phenotype (drug resistance profile) [1]	Phenotype (drug resistance profile) [2]	Phenotype (drug resistance profile) [3]	Phenotype (drug resistance profile) [4]	Phenotype (drug resistance profile) [5]	Phenotype (drug resistance profile) [6]	Phenotype (drug resistance profile) [7]	Phenotype (drug resistance profile) [8]	Phenotype (drug resistance profile) [9]	Phenotype (drug resistance profile) [10]	other results
CC(C)(O/N=C(\C(=O)N[C@@H]1C(=O)N2C(C(=O)[O-])=C(C[n+]3ccccc3)CS[C@H]12)c1csc(N)n1)C(=O)O [CAZ, ceftazidime]	R	R	R	R	S	R	CAZ-R, TZP-R, CIP-R, TOB-R	S	CAZ-R, TZP-R, CIP-R	S	
O=C(O)c1cn(C2CC2)c2cc(N3CCNCC3)c(F)cc2c1=O [CIP, ciprofloxacin]	R	S	S	R	R	S	CAZ-R, TZP-R, CIP-R, TOB-R	R	CAZ-R, TZP-R, CIP-R	S	
C[C@@H](O)[C@H]1C(=O)N2C(C(=O)O)=C(S[C@@H]3CN[C@H](CNS(N)(=O)=O)C3)[C@H](C)[C@H]12 [DOR, doripenem]	R	S	S	R	DOR-R, IPM-R, MEM-R, FEP-R,	DOR-R, IPM-R, MEM-R, FEP-R,	DOR-R, IPM-R, MEM-R, FEP-R,	R	DOR-R, IPM-R, MEM-R, FEP-R,	S	
CO/N=C(\C(=O)N[C@@H]1C(=O)N2C(C(=O)[O-])=C(C[N+]3(C)CCCC3)CS[C@H]12)c1csc(N)n1 [FEP, cefepime]	I	R	R	I	DOR-R, IPM-R, MEM-R, FEP-R,	DOR-R, IPM-R, MEM-R, FEP-R,	DOR-R, IPM-R, MEM-R, FEP-R,	S	DOR-R, IPM-R, MEM-R, FEP-R,	R	
C[C@@H](O)[C@H]1C(=O)N2C(C(=O)O)=C(S[C@@H]3CN[C@H](C(=O)N(C)C)C3)[C@H](C)[C@H]12 [MEM, meropenem]	R	S	S	R	DOR-R, IPM-R, MEM-R, FEP-R,	DOR-R, IPM-R, MEM-R, FEP-R,	DOR-R, IPM-R, MEM-R, FEP-R,	R	DOR-R, IPM-R, MEM-R, FEP-R,	S	
CO[C@@H]1[C@@H](OC(N)=O)[C@@H](O)[C@H](Oc2ccc3c(O)c(NC(=O)c4ccc(O)c(CC=C(C)C)c4)c(=O)oc3c2C)OC1(C)C [NVB, novobiocin sodium]											MIC (P. aeruginosa PAO1 [11]; P. aeruginosa PAO1, Example 9, read-out: MIC (Table 7, agent alone)): > 128 µg/mL; MIC (P. aeruginosa PAO1 [11]; [17]): > 512 µg/mL; MIC (E. coli ATCC 25922; Example 9, read-out: MIC (Table 7, agent alone)): 48 µg/mL; MIC (E. coli ATCC 25922; [18]): 32 µg/mL; MIC (P. aeruginosa ATCC 27853 [12]): 128 µg/mL; MIC (P. aeruginosa ATCC 27853 [12]; P. aeruginosa ATCC 27853, Example 9, read-out: MIC (Table 7, agent alone)): > 128 µg/mL; MIC (P. aeruginosa MDR 3072): > 512 µg/mL; MIC (P. aeruginosa MDR 2638): > 512 µg/mL; MIC (P. aeruginosa MDR 24530): > 512 µg/mL; zone of inhibition, A (P. aeruginosa PAO1 [13]): 0 mm^2; zone of inhibition at 30 µg/disc (P. aeruginosa PAO1 [13]; [19]): 0 mm; zone of inhibition, A [14]: 0 mm^2; zone of inhibition at 30 µg/disc [14, 19]: 0 mm; zone of inhibition, A (P. aeruginosa ATCC 27853 [15]): 44 mm^2; zone of inhibition at 30 µg/disc (P. aeruginosa ATCC 27853 [15]; [20]): 7.5 mm; zone of inhibition, A [16]: 0 mm^2; zone of inhibition at 30 µg/disc [16, 19]: 0 mm
CO[C@H]1/C=C/O[C@@]2(C)Oc3c(C)c(O)c4c(O)c(c(/C=N/N5CCN(C)CC5)c(O)c4c3C2=O)NC(=O)/C(C)=C\C=C\[C@H](C)[C@H](O)[C@@H](C)[C@@H](O)[C@@H](C)[C@H](OC(C)=O)[C@@H]1C [RIF, rifampicin]											MIC (P. aeruginosa PAO1 [11]; [17]): 16 µg/mL; MIC (E. coli ATCC 25922; [18]): 4 µg/mL; MIC (P. aeruginosa ATCC 27853 [12]; ATCC 27853, antibiotic alone, Table 3, read-out: MIC): 16 µg/mL; MIC (P. aeruginosa MDR 3072): 16 µg/mL; MIC (P. aeruginosa MDR 2638): 8 µg/mL; MIC (P. aeruginosa MDR 24530): 16 µg/mL; zone of inhibition, A (P. aeruginosa PAO1 [13]): 33 mm^2; zone of inhibition at 5 µg/disc (P. aeruginosa PAO1 [13]; [19]): 6.5 mm; zone of inhibition, A [14]: 0 mm^2; zone of inhibition at 5 µg/disc [14, 19]: 0 mm; zone of inhibition, A (P. aeruginosa ATCC 27853 [15]): 0 mm^2; zone of inhibition at 5 µg/disc (P. aeruginosa ATCC 27853 [15]; [20]): 0 mm; zone of inhibition, A [16]: 0 mm^2; zone of inhibition at 5 µg/disc [16, 19]: 0 mm
NC[C@H]1O[C@H](O[C@H]2[C@H](O)[C@@H](O[C@H]3O[C@H](CO)[C@@H](O)[C@H](N)[C@H]3O)[C@H](N)C[C@@H]2N)[C@H](N)C[C@@H]1O [TOB, tobramycin]	S	S	R			S	CAZ-R, TZP-R, CIP-R, TOB-R	R		S	
